The values below come from US20240246942A1, “KINASE INHIBITORS FOR THE TREATMENT OF NEURODEGENERATIVE DISEASES” (priority 2020, published 2024).

Structures are written as SMILES.

Holding throughout (experiment): biochemical
Experiment [1] concerns the target T1, panel of 374 wild-type kinases (Homo sapiens, UniProt P42681).
T1 construct: purchased Reaction Biology Corporation
T1 sequence (P42681 1-527): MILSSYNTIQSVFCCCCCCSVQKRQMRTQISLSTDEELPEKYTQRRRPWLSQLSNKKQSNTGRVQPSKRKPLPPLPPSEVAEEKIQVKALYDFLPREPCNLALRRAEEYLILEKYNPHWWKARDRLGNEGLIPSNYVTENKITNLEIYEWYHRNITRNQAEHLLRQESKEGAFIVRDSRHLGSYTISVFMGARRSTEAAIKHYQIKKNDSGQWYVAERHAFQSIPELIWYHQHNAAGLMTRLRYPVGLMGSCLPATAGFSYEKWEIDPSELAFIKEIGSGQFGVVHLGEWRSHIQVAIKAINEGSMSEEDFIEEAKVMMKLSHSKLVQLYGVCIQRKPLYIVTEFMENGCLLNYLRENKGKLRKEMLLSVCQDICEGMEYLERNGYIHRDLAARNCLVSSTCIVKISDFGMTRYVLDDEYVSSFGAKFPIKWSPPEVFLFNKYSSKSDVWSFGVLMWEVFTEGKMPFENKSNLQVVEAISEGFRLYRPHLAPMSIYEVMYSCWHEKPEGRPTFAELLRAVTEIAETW
The note with it: read-out: % Enzyme Activity (relative to DMSO controls), kinase TXK.

Experiment [2] has as its target T2, panel of 374 wild-type kinases (Homo sapiens, UniProt Q5VT25).
T2 construct: purchased Reaction Biology Corporation
As to conditions: read-out: % Enzyme Activity (relative to DMSO controls), MRCKa/CDC42BPA.

The target in experiment [3] is T3, panel of 374 wild-type kinases (Homo sapiens, UniProt Q13153).
T3 construct: purchased Reaction Biology Corporation
The note with it: read-out: % Enzyme Activity (relative to DMSO controls), kinase PAK1.

In experiment [4] the target is T4, panel of 374 wild-type kinases (Homo sapiens, UniProt Q9BXA7).
T4 construct: purchased Reaction Biology Corporation
T4 sequence (Q9BXA7 1-367): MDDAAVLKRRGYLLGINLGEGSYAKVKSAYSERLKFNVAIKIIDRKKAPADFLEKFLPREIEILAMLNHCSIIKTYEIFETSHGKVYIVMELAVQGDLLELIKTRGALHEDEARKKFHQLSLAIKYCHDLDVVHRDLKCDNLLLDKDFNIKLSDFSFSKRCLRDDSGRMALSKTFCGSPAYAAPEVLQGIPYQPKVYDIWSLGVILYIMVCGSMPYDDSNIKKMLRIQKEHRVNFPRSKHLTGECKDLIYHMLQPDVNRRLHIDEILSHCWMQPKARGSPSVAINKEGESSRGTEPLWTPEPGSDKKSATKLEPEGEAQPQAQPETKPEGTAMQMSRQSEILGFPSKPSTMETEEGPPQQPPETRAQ
The note with it: read-out: % Enzyme Activity (relative to DMSO controls), kinase STK22D/TSSK1.

Experiment [5] has as its target T5, panel of 374 wild-type kinases (Homo sapiens, UniProt P49761).
T5 construct: purchased Reaction Biology Corporation
As to conditions: read-out: % Enzyme Activity (relative to DMSO controls), CLK3.

For experiment [6], the target named is T6, panel of 374 wild-type kinases (Homo sapiens, UniProt Q9BYT3).
T6 construct: purchased Reaction Biology Corporation
The note with it: kinase STK33, read-out: % Enzyme Activity (relative to DMSO controls).

Experiment [7] addresses T7, panel of 374 wild-type kinases (Homo sapiens, UniProt P42684).
T7 construct: purchased Reaction Biology Corporation
As to conditions: read-out: % Enzyme Activity (relative to DMSO controls), ABL2/ARG.

Experiment [8] deals with T8, panel of 374 wild-type kinases (Homo sapiens, UniProt O75385).
T8 construct: purchased Reaction Biology Corporation
T8 sequence (O75385 1-1050): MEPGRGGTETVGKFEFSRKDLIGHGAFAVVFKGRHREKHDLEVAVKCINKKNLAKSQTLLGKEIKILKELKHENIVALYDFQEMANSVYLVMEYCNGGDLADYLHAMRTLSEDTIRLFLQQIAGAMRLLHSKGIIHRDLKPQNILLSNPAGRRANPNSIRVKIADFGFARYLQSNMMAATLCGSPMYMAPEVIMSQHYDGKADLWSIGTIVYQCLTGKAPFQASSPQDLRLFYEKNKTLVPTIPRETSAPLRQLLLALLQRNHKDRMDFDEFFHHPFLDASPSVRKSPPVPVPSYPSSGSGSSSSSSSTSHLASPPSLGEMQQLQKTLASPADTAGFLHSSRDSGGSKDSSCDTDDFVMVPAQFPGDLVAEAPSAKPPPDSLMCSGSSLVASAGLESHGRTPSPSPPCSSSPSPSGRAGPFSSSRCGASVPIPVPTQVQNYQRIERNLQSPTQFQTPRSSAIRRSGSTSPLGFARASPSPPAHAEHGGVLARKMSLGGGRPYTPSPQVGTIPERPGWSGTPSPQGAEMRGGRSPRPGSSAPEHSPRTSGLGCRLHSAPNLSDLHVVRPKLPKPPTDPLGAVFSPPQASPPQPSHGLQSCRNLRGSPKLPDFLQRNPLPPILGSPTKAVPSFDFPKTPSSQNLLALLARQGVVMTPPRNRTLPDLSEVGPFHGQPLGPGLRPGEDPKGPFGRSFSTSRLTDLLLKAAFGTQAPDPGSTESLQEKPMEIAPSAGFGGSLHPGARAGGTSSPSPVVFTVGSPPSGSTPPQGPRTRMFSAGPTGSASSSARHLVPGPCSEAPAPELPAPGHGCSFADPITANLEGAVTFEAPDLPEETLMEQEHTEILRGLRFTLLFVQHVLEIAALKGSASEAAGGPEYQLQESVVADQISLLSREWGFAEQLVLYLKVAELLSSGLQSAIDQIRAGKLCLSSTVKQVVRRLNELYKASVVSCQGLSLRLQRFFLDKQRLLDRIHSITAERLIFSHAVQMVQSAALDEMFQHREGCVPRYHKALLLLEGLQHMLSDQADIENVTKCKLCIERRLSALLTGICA
The note with it: read-out: % Enzyme Activity (relative to DMSO controls), kinase ULK1.

T3 sequence (Q13153 whole entry): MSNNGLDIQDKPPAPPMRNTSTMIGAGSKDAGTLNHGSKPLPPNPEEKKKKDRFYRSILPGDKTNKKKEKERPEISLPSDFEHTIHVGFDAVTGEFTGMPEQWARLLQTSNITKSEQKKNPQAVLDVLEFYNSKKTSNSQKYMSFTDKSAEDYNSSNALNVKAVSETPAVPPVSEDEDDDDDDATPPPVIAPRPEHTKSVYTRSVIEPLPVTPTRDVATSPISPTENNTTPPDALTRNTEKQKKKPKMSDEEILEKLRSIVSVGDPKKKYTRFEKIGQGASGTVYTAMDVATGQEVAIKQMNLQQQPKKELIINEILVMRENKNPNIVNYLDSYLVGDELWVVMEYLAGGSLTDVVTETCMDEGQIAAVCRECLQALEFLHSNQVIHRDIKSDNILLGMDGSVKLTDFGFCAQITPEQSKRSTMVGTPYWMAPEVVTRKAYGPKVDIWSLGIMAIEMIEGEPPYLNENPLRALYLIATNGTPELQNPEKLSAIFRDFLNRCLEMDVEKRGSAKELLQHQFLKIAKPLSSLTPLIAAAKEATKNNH
T5 sequence (P49761 whole entry): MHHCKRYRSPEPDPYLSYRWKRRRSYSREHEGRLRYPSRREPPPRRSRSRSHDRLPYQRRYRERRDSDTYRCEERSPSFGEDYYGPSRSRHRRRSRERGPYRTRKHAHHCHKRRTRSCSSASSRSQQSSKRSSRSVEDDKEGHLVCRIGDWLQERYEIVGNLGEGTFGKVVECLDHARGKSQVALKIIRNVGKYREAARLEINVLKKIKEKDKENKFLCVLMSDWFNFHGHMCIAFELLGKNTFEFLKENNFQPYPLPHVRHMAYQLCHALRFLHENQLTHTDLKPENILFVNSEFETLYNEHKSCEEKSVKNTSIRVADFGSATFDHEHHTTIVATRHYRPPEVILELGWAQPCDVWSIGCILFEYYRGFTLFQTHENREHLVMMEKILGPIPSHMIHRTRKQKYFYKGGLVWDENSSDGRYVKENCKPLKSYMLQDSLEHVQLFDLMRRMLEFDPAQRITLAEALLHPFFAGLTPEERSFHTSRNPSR
T7 sequence (P42684 whole entry): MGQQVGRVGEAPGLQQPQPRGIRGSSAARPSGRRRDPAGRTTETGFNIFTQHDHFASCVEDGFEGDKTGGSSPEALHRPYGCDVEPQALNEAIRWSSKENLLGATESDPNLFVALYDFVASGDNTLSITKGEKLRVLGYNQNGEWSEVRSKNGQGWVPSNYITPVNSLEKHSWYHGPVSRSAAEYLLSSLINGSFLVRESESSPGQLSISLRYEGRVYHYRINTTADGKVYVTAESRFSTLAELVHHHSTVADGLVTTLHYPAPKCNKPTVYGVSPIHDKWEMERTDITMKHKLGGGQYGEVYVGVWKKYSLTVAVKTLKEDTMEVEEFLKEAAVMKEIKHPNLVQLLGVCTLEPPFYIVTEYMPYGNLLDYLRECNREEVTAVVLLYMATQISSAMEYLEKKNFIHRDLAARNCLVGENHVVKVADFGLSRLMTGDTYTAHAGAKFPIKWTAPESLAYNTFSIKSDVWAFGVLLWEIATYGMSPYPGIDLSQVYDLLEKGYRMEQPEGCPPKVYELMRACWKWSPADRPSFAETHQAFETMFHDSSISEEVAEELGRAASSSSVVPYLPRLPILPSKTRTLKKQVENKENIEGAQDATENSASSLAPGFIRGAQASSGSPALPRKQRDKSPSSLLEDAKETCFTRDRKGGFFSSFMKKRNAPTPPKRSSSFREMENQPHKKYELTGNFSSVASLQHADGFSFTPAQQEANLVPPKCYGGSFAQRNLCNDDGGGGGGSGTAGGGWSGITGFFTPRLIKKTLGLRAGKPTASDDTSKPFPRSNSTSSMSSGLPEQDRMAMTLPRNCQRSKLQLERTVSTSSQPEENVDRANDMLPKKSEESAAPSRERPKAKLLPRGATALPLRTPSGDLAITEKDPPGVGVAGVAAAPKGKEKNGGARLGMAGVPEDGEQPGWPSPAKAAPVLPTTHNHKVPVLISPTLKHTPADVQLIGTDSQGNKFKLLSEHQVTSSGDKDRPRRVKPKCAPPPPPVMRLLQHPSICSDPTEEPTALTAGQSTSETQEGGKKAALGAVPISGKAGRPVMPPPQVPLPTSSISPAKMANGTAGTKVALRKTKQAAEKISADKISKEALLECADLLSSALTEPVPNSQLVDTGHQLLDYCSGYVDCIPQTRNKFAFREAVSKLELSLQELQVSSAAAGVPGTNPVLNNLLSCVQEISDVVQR
T6 sequence (Q9BYT3 whole entry): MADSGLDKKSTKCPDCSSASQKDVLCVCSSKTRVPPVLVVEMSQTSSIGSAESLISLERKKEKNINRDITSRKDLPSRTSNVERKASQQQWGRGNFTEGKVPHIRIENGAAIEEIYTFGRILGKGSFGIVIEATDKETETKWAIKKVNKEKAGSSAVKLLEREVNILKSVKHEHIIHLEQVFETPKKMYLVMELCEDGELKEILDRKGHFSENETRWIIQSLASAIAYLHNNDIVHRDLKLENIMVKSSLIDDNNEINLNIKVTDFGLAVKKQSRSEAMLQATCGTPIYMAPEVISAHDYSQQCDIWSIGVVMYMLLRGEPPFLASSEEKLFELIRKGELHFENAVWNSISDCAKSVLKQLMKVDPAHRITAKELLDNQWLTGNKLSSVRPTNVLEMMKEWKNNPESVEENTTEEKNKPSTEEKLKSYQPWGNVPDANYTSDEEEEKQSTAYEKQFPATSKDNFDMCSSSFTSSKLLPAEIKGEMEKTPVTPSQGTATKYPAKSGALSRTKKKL
T2 sequence (Q5VT25 whole entry): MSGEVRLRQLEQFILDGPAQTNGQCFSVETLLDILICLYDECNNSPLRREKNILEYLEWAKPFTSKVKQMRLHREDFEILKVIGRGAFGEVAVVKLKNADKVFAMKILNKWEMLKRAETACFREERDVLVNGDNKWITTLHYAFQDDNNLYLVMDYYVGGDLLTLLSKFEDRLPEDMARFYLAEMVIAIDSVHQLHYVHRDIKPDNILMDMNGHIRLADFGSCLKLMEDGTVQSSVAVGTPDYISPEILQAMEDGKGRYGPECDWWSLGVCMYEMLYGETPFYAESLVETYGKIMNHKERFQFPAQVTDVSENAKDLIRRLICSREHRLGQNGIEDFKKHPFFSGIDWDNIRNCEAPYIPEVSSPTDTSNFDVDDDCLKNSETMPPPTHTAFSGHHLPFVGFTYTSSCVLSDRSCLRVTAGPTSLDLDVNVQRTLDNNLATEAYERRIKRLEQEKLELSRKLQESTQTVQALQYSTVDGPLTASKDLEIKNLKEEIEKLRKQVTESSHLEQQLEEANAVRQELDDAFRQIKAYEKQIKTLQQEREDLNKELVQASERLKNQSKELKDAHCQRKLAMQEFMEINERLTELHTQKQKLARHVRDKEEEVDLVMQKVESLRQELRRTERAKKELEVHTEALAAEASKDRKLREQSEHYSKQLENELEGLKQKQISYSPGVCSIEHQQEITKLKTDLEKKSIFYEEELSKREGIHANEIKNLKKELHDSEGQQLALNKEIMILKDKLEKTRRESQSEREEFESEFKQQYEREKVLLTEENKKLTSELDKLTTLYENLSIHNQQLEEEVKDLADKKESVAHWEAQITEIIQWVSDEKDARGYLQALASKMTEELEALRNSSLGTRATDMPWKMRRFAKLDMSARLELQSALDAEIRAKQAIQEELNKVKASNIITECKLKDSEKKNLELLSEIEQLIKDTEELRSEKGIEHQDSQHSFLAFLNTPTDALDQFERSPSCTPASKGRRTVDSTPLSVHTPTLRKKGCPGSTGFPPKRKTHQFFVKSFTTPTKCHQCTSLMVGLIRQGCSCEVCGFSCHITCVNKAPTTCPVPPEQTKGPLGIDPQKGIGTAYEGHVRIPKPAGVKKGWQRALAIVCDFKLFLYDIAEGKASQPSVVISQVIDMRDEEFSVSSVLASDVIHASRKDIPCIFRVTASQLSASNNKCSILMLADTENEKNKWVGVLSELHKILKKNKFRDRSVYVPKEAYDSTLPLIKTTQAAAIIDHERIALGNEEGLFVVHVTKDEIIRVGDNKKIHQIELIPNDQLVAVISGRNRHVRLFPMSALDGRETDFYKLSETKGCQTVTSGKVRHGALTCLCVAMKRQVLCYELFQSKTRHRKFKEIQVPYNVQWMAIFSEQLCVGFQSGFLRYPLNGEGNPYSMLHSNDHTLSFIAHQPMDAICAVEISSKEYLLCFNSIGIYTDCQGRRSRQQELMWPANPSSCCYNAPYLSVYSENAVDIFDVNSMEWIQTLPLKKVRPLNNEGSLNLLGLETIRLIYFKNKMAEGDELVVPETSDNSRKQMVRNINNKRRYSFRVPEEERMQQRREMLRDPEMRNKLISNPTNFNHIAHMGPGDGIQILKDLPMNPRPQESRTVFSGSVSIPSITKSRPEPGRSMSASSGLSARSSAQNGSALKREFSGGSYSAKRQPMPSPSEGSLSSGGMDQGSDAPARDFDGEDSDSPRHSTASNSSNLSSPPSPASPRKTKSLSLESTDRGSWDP

On to `Cc1sc(C(=O)NC2COC2)cc1-n1cc(NC(=O)Nc2c(F)cccc2Cl)cn1` [Compound 27, 4-(4-(3-(2-chloro-6-fluorophenyl)ureido)-1H-pyrazol-1-yl)-5-methyl-N-(oxetan-3-yl)thiophene-2-carboxamide], for which the remaining activity at 10 µM in experiment [1] (10 uM) stood at 76.7%; in experiment [2] (10 uM), 104%; in experiment [3] (10 uM) it was 104%; in experiment [4] (10 uM) it was 103%; in experiment [5] (10 uM), 99.6%; in experiment [6] (10 uM), 87.6%. The remaining activity at 10 µM amounted to 123% in experiment [7] (10 uM) and 77.3% in experiment [8] (10 uM).

For the molecule `O=C(Nc1cnn(-c2csc(C(=O)NC3COC3)c2)c1)Nc1c(F)cccc1Cl` [Compound 25, 4-(4-(3-(2-chloro-6-fluorophenyl)ureido)-1H-pyrazol-1-yl)-N-(oxetan-3-yl)thiophene-2-carboxamide], the remaining activity at 5 µM in experiment [1] was determined as 90.8%; in experiment [2], 99%; in experiment [3], 81.2%; in experiment [4], 107%; in experiment [5] it was 93.5%; in experiment [6], 81.8%. Besides, the remaining activity at 5 µM in experiment [7] came to 88.7%; in experiment [8], 93.9%.

`O=C(Nc1cnn(-c2csc(C(=O)NC3COC3)c2)c1)Nc1ccccc1Cl` [Compound 17, 4-(4-(3-(2-chlorophenyl)ureido)-1H-pyrazol-1-yl)-N-(oxetan-3-yl)thiophene-2-carboxamide]: the remaining activity at 5 µM in experiment [1] came to 89.8%; in experiment [2], 99.3%; in experiment [3], 106%; in experiment [4] it was 102%; in experiment [5], 120%; in experiment [6], 99.3%. In addition, the remaining activity at 5 µM in experiment [7] turned out to be 92.7%; in experiment [8], 134%.
